Test results reported in patent US20200138827A1, “SMALL MOLECULE MODULATORS OF HUMAN STING” (Curadev Pharma Limited, priority 2017, published 2020).

The compounds below were run against T1, WT/R232 STING protein (Homo sapiens, UniProt Q86WV6, H232R) (assay: Luciferase reporter assay in HEK293T-hSTING-Luciferase cells, WT/R232). Settings: 20 hr stimulation, read-out: R232 Activity (EC50 range).
T1 construct: host or cells: HEK293T
Format: cell-based
How it was run: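 Clonal HEK293T cells stably expressing human STING R232 plus an ISRE/ISG54-driven luciferase reporter, 5×10^5 per well, stimulated with compounds for 20 h. Secreted luciferase in supernatant measured by luminescence; […].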

T1 sequence (Q86WV6 whole entry H232R): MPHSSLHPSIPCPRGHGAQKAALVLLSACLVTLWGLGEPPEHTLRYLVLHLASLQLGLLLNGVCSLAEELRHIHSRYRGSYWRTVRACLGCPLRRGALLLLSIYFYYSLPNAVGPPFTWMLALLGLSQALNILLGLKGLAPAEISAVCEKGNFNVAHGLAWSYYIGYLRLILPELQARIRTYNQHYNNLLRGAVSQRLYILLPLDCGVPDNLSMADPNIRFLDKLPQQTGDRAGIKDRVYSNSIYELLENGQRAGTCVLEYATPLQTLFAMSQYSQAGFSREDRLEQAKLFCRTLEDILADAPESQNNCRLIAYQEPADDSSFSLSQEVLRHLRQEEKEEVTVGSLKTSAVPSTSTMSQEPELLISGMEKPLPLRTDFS

SMILES | EC50 [µM]
O=C(NCc1cnccn1)c1ccc2c(c1)N(Cc1ccccc1)C(=O)CS2 [Example 58, 4-benzyl-3-oxo-N-(pyrazin-2-ylmethyl)-3,4-dihydro-2H-benzo[b-1,4]thiazine-6-carboxamide] | > 10
O=C(NCC1CC1)c1ccc2c(c1)N(Cc1ccccc1F)C(=O)CS2 [Example 20, N-(cyclopropyl-methyl)-4-(2-fluorobenzyl)-3-oxo-3,4-dihydro-2H-benzo[b-1,4]thiazine-6-carboxamide] | > 10
O=C(NCc1c(F)cc(F)cc1F)c1ccc2c(c1)N(C(C(=O)O)c1ccccc1)C(=O)CS2 (stereo not drawn) [Example 113, 2-(3-oxo-6-((2,4,6-trifluorobenzyl)carbamoyl)-2H-benzo[b][1,4]thiazin-4(3H)-yl)-2-phenylacetic acid] | > 10
O=C(NCc1n[nH]c(=O)c2ccccc12)c1ccc2c(c1)N(Cc1ccccc1)C(=O)CS2 [Example 51, 4-benzyl-3-oxo-N-((4-oxo-3,4-dihydrophthalazin-1-yl)methyl)-3,4-dihydro-2H-benzo[b-1,4]thiazine-6-carboxamide] | > 10
Cc1cccc(CNC(=O)c2ccc3c(c2)N(Cc2ccccc2Cl)C(=O)C(C)S3)c1 (stereo not drawn) [Example 143, 4-(2-chlorobenzyl)-2-methyl-N-(3-methylbenzyl)-3-oxo-3,4-dihydro-2H-benzo[b-1,4]thiazine-6-carboxamide] | 1 to 10
O=C(NCc1ccc(F)cc1)c1ccc2c(c1)N(Cc1ccccc1Cl)C(=O)CS2 [Example 122, 4-(2-chlorobenzyl)-N-(4-fluorobenzyl)-3-oxo-3,4-dihydro-2H-benzo[b-1,4]thiazine-6-carboxamide] | 1 to 10
O=C(CN1CCSc2ccc(C(=O)NCc3ccco3)cc21)c1ccccc1 [Example 249, N-(furan-2-ylmethyl)-4-(2-oxo-2-phenylethyl)-3,4-dihydro-2H-benzo[b][1,4]thiazine-6-carboxamide] | > 10
Cn1cc(CNC(=O)c2ccc3c(c2)N(Cc2ccccc2)C(=O)CS3)cn1 [Example 121, 4-benzyl-N-((1-methyl-1H-pyrazol-4-yl)methyl)-3-oxo-3,4-dihydro-2H-benzo[b][1,4] thiazine-6-carboxamide] | > 10
O=C(NC1(c2ccccc2)CCCC1)c1ccc2c(c1)N(Cc1ccccc1)C(=O)CS2 [Example 75, 4-benzyl-3-oxo-N-(1-phenylcyclopentyl)-3,4-dihydro-2H-benzo[b-1,4]thiazine-6-carboxamide] | > 10
O=C(NCc1coc2ccccc12)c1ccc2c(c1)N(Cc1ccccc1)C(=O)CS2 [Example 70, N-(benzofuran-3-ylmethyl)-4-benzyl-3-oxo-3,4-dihydro-2H-benzo[b-1,4]thiazine-6-carboxamide] | > 10
Cc1cnc(CNC(=O)c2ccc3c(c2)N(Cc2cc(F)cc(F)c2)C(=O)C(C)S3)o1 (stereo not drawn) [Example 163, 4-(3,5-difluorobenzyl)-2-methyl-N-((5-methyloxazol-2-yl)methyl)-3-oxo-3,4-dihydro-2H-benzo[b][1,4] thiazine-6-carboxamide] | 1 to 10
N#Cc1cc(C(=O)NCc2ccco2)cc2c1SCC(=O)N2Cc1cc(F)cc(F)c1 [Example 220, 8-cyano-4-(3,5-difluorobenzyl)-N-(furan-2-ylmethyl)-3-oxo-3,4-dihydro-2H-benzo[b-1,4]thiazine-6-carboxamide] | > 10
Cn1nccc1CNC(=O)c1ccc2c(c1)N(Cc1ccccc1)C(=O)CS2 [Example 67, 4-benzyl-N-((1-methyl-1H-pyrazol-5-yl)methyl)-3-oxo-3,4-dihydro-2H-benzo[b-1,4]thiazine-6-carboxamide] | > 10
O=C(NCc1ccc(F)cc1F)c1cnc2c(c1)N(Cc1ccc(F)cc1)C(=O)CC2 [Example 280, N-(2,4-difluorobenzyl)-5-(4-fluorobenzyl)-6-oxo-5,6,7,8-tetrahydro-1,5-naphthyridine-3-carboxamide] | > 10
CC(NC(=O)c1ccc2c(c1)N(Cc1ccccc1F)C(=O)CS2)C12C[C@H]3C[C@@H](C1)C[C@@H](C2)C3 (stereo partly drawn) [Example 23, N-(1-((3r,5r,7r)-adamantan-1-yl)ethyl)-4-(2-fluorobenzyl)-3-oxo-3,4-dihydro-2H-benzo[b-1,4]thiazine-6-carboxamide] | > 10
O=C(NCC1CCCCC1)c1ccc2c(c1)N(C(=O)c1c(F)cccc1Cl)CCS2 [Example 257, 4-(2-chloro-6-fluorobenzoyl)-N-(cyclohexylmethyl)-3,4-dihydro-2H-benzo[b][1,4]thiazine-6-carboxamide] | 1 to 10
C[C@@H]1Oc2ncc(C(=O)NCc3c(F)cc(F)cc3F)cc2N(Cc2cc(F)cc(F)c2)C1=O [Example 237, (S)-1-(3,5-difluorobenzyl)-3-methyl-2-oxo-N-(2,4,6-trifluorobenzyl)-2,3-dihydro-1H-pyrido[2,3-b-1,4]oxazine-7-carboxamide] | 1 to 10

Second part, the compound after the results:

EC50 [µM] | SMILES
> 10 | O=C(NCc1ccco1)c1ccc2c(c1)N(CCc1ccccc1)C(=O)CS2 [Example 8, N-(furan-2-ylmethyl)-3-oxo-4-phenethyl-3,4-dihydro-2H-benzo[b-1,4]thiazine-6-carboxamide]
1 to 10 | Cc1ccc(CNC(=O)c2ccc3c(c2)N(Cc2ccccc2)C(=O)CS3)o1 [Example 62, 4-benzyl-N-((5-methylfuran-2-yl)methyl)-3-oxo-3,4-dihydro-2H-benzo[b-1,4]thiazine-6-carboxamide]
> 10 | NC(=O)c1cccc(CN2C(=O)CSc3ccc(C(=O)NCc4ccco4)cc32)c1 [Example 86, 4-(3-carbamoylbenzyl)-N-(furan-2-ylmethyl)-3-oxo-3,4-dihydro-2H-benzo[b-1,4]thiazine-6-carboxamide]
> 10 | O=C(NCc1ccco1)c1ccc2c(c1)N(Cc1c(F)cccc1Cl)C(=O)C[S+]2[O-] (stereo not drawn) [Example 245, 4-(2-chloro-6-fluorobenzyl)-N-(furan-2-ylmethyl)-3-oxo-3,4-dihydro-2H-benzo[b][1,4]thiazine-6-carboxamide 1-oxide]
> 10 | O=C(NCc1ccccc1-c1ccccc1)c1ccc2c(c1)N(Cc1c(F)cccc1Cl)C(=O)CS2 [Example 46, N-([1,1′-biphenyl]-2-ylmethyl)-4-(2-chloro-6-fluorobenzyl)-3-oxo-3,4-dihyddro-2H-benzo[b][1,4] thiazine-6-carboxamide]
1 to 10 | O=C(NCc1ccco1)c1ccc2c(c1)N(Cc1c(F)cccc1F)C(=O)CS2 [Example 101, 4-(2,6-difluorobenzyl)-N-(furan-2-ylmethyl)-3-oxo-3,4-dihydro-2H-benzo[b-1,4]thiazine-6-carboxamide]
> 10 | O=C(NCc1ccco1)c1cnc2c(c1)N(Cc1c(F)cccc1Cl)C(=O)CS2 [Example 177, 1-(2-Chloro-6-fluorobenzyl)-N-(furan-2-ylmethyl)-2-oxo-2,3-dihydro-1H-pyrido[2,3-b-1,4]thiazine-7-carboxamide]
> 10 | O=C(NCc1ccco1)c1ccc2c(c1)N(Cc1c(F)cccc1Cl)C(=O)CO2 [Example 231, 4-(2-Chloro-6-fluorobenzyl)-N-(furan-2-ylmethyl)-3-oxo-3,4-dihydro-2H-benzo[b-1,4]oxazine-6-carboxamide]
1 to 10 | O=C(NCc1ccccc1)c1ccc2c(c1)N(Cc1c(F)cccc1Cl)C(=O)CS2 [Example 126, N-benzyl-4-(2-chloro-6-fluorobenzyl)-3-oxo-3,4-dihydro-2H-benzo[b-1,4]thiazine-6-carboxamide]
> 10 | O=C(NCc1ccco1)c1ccc2c(c1)N(Cc1ccccc1)C(=O)CS2 [Example 111, 4-benzyl-N-(furan-2-ylmethyl)-3-oxo-3,4-dihydro-2H-benzo[b-1,4]thiazine-6-carboxamide]
> 10 | CC1(C)Sc2ccc(C(=O)NCc3ccco3)cc2N(Cc2ccccc2)C1=O [Example 132, 4-Benzyl-N-(furan-2-ylmethyl)-2,2-dimethyl-3-oxo-3,4-dihydro-2H-benzo[b-1,4]thiazine-6-carboxamide]
> 10 | CC1Oc2ncc(C(=O)NCc3cccc(C(F)(F)F)c3)cc2N(Cc2c(F)cccc2Cl)C1=O (stereo not drawn) [Example 244, 1-(2-chloro-6-fluorobenzyl)-3-methyl-2-oxo-N-(3-(trifluoromethyl)benzyl)-2,3-dihydro-1H-pyrido[2,3-b][1,4]oxazine-7-carboxamide]
> 10 | O=C(NCc1ccco1)c1ccc2c(c1)N(C(=O)c1c(F)cccc1Cl)CCO2 [Example 265, 4-(2-chloro-6-fluorobenzoyl)-N-(furan-2-ylmethyl)-3,4-dihydro-2H-benzo[b-1,4]oxazine-6-carboxamide]
> 10 | O=C(NCc1ccco1)c1ccc2c(c1)N(CC(O)c1ccccc1)C(=O)CS2 (stereo not drawn) [Example 17, N-(furan-2-ylmethyl)-4-(2-hydroxy-2-phenylethyl)-3-oxo-3,4-dihydro-2H-benzo[b-1,4]thiazine-6-carboxamide]
> 10 | O=C(NCc1ccco1)c1ccc2c(c1)N(CCc1cccc(Cl)c1)C(=O)CS2 [Example 90, 4-(3-chlorophenethyl)-N-(furan-2-ylmethyl)-3-oxo-3,4-dihydro-2H-benzo[b-1,4]thiazine-6-carboxamide]
> 10 | O=C(NCc1ccco1)c1cc(Br)c2c(c1)N(Cc1ccccc1F)C(=O)CS2 [Example 221, 8-bromo-4-(2-fluorobenzyl)-N-(furan-2-ylmethyl)-3-oxo-3,4-dihydro-2H-benzo[b-1,4]thiazine-6-carboxamide]
> 10 | O=C(NCc1ccco1)c1ccc2c(c1)N(Cc1ccccc1)C(=S)CS2 [Example 266, 4-Benzyl-N-(furan-2-ylmethyl)-3-thioxo-3,4-dihydro-2H-benzo[b-1,4]thiazine-6-carboxamide]
> 10 | Cc1nc(CN2C(=O)CSc3ccc(C(=O)NCc4ccco4)cc32)cs1 [Example 96, N-(furan-2-ylmethyl)-4-((2-methylthiazol-4-yl)methyl)-3-oxo-3,4-dihydro-2H-benzo[b-1,4]thiazine-6-carboxamide]
> 10 | O=C(NCc1ccco1)c1ccc2c(c1)N(Cc1cn3ccsc3n1)C(=O)CS2 [Example 104, N-(furan-2-ylmethyl)-4-(imidazo[2,1-b]thiazol-6-ylmethyl)-3-oxo-3,4-dihydro-2H-benzo[b-1,4]thiazine-6-carboxamide]
